{"source": "patent US11964014B2", "about": "“Vaccine adjuvants based on TLR receptor ligands” (priority 2019, dated 2024)", "key": {"[1]": {"test_system": "CT26 cells (murine colon cancer cell line)", "experiment": "CT26 syngeneic tumor model, tumor growth", "format": "in vivo", "details": "CT26 s.c. in female Balb/c mice; 10 μg or 50 μg IV once a week for two weeks, 2% glycerol in sterile water (FIG. 6A, 6B)", "experimental": "Young, female Balb/c mice (approximately 8 weeks old) were implanted with 1×10^6 CT26 cells (murine colon cancer cell line, syngeneic in Balb/c mice) subcutaneously in the right flank. When tumors reached an average size of 75 mm^3 (11 days after CT26 cells were implanted), mice were randomized into treatment groups. Beginning on day 12, 10 μg or 50 μg of UM-1007 in an aqueous formulation (2% glycerol in sterile water) was injected IV once a week for two weeks."}, "[2]": {"test_system": "monovalent (A/Victoria, H3N2) split flu antigen", "format": "in vivo, Balb/c mice", "details": "i.m."}, "[3]": {"test_system": "primary human peripheral blood mononuclear cells (PBMCs)", "experiment": "Cytokine (IFNα, IL-12p70, TNFα) induction in human PBMCs stimulated with TLR agonists", "format": "cell-based", "details": "human PBMC", "experimental": "IFNα and IL-12p70 responses were measured in primary human peripheral blood mononuclear cells (PBMCs) after exposure to various concentrations of oxoadenine compounds.\nLiposomes were prepared using the thin film method: phospholipids (DOPC and cholesterol at 40 and 10 mg/mL respectively) and agonist(s) (TLR7/8 agonist fixed at 2 mg/mL) were dissolved in chloroform at the desired concentration in a round bottom flask. The solvent was removed under vacuum by rotary evaporation at 45° C., and the resulting dried film was placed in a vacuum chamber overnight to remove any residual solvent. Rehydration buffer was added to the dried film and the suspension was sonicated to resuspend the phospholipids and form the unilamellar vesicles. Sonication continued until the particle size was<200 nm, at which time the formulations were sterile filtered through a 0.22 μm PVDF filter. Concentrations of agonist(s) in the formulations was determined by RP-HPLC using a five-point standard curve. Human whole blood was collected from normal healthy donors at the University of Montana (Missoula, MT) using an Institutional Review Board approved protocol. […] Culture supernatants were analyzed for IL-12p70 and IFNα levels using human IL-12p70 DuoSet (R) ELISA kit (R&D Systems, Minneapolis, MN) and human IFNα VeriKine ELISA kit (Pestka Biomedical Laboratories, Inc., Piscataway, NJ)."}}, "data": [{"smiles": "CCCCCCCCCCCCCCCC(=O)OC[C@H](COCCOCCOCCOP(=O)(O)OCCN1CCC(Cn2c(O)nc3c(N)nc(O[C@@H](C)CCC)nc32)CC1)OC(=O)CCCCCCCCCCCCCCC", "note": "[UM-1007]", "values": [{"measurement": "Tumor growth compared to treatment naive controls", "setting": "[1]", "value": "slower tumor growth"}, {"measurement": "Anti-influenza IgG titers over antigen-only vaccinated animals", "setting": "[2]; Balb/c mice, liposomes, 10 μg UM-1007 alone", "value": 17, "unit": "fold"}, {"measurement": "Dose dependence of anti-influenza IgG titer enhancement", "setting": "[2]; Balb/c mice, liposomes, 14dp2 (FIG. 3B)", "value": "enhanced titers in a dose-dependent manner"}, {"measurement": "Anti-influenza IgG titers over the antigen-alone group", "setting": "[2]; Balb/c mice, liposomes, co-encapsulated with CRX-601 (TLR7/8:TLR4 ratio 10:1)", "value": "> 25", "unit": "fold"}, {"measurement": "Anti-influenza IgG titers after a single vaccination", "setting": "[2]; naïve Balb/c mice, liposomes alone or co-encapsulated with CRX-601, 14dp1 (FIG. 3A)", "value": "Strong anti-influenza IgG titers"}, {"measurement": "IFNα induction potency compared with the non-PEGylated oxoadenine Compound B", "setting": "[3]; 24 h, liposomes, alone or in combination with TLR4 agonist CRX-601 (FIG. 2A)", "value": "more potent IFNα inducer"}, {"measurement": "IL-12p70 induction potency relative to Compound B", "setting": "[3]; combined with TLR4 agonist CRX-601 (FIG. 2B)", "value": 125, "unit": "fold"}]}]}
